Species: Rattus norvegicus
Test: Open TG-GATES - Regimen: Daily Repeat
Format: toxicity, organism-based, Sprague-Dawley
Parameters: regimen Daily Repeat, gender Male, age 6 weeks
Details: in vivo, po, route gavage; for APTT / Bas / Eos / Fbg / Hb / Ht / Lym / MCH / MCHC / MCV / Mono / Neu / PT / Plat / RBC / Ret / WBC: tissue Blood; for KIDNEY_L / KIDNEY_R / KIDNEY_TOTAL: tissue Kidney; for LIVER: tissue Liver; for A/G / ALP / ALT / AST / BUN / CRE / Ca / Cl / DBIL / GLC / IP / K / LDH / Na / PL / RALB / TBIL / TC / TG / TP / gamma-GTP: tissue Plasma
[1] = 0 mg/kg, 72 h, dose level Control, time 3 day
[2] = 0 mg/kg, […], dose level Control, time 7 day
[3] = 0 mg/kg, […], dose level Control, time 14 day
[4] = 0 mg/kg, […], dose level Control, time 28 day
[5] = 1 mg/kg, 72 h, dose level Low, time 3 day
[6] = 1 mg/kg, […], dose level Low, time 7 day
[7] = 1 mg/kg, […], dose level Low, time 14 day
[8] = 1 mg/kg, […], dose level Low, time 28 day

## COc1ccc2c(c1)c(CC(=O)O)c(C)n2C(=O)c1ccc(Cl)cc1 [INDOMETHACIN]
[1]
  TERMINAL_BW: 239.9 g
  APTT: 17 s
  Bas: 0%
  Eos: 0.8%
  Fbg: 211.8 mg/dL
  Hb: 13.4 g/dL
  Ht: 40.3%
  Lym: 81.4%
  MCH: 21.4 pg
  MCHC: 33.1%
  MCV: 64.6 fL
  Mono: 8%
  Neu: 10.2%
  PT: 11.2 s
  Plat: 122 x10_4/uL
  RBC: 625.2 x10_4/ul
  Ret: 7.6%
  WBC: 117.2 x10_2/uL
  KIDNEY_L: 1 g
  KIDNEY_R: 1.1 g
  KIDNEY_TOTAL: 2.1 g
  LIVER: 11.9 g
  A/G: 2.1
  ALP: 1154.8 IU/L
  ALT: 33.2 IU/L
  AST: 60 IU/L
  BUN: 15.4 mg/dL
  CRE: 0.6 mg/dL
  Ca: 10.5 mg/dL
  Cl: 107 meq/L
  DBIL: 0.032 mg/dL
  GLC: 201.8 mg/dL
  IP: 7.4 mg/dL
  K: 4.8 meq/L
  LDH: 95.2 IU/L
  Na: 139.6 meq/L
  PL: 144.4 mg/dL
  RALB: 3.9 g/dL
  TBIL: 0.4 mg/dL
  TC: 74.2 mg/dL
  TG: 86.8 mg/dL
  TP: 5.7 g/dL
  gamma-GTP: 1 IU/L
[2]
  TERMINAL_BW: 269.3 g
  APTT: 16.5 s
  Bas: 0%
  Eos: 1%
  Fbg: 223.6 mg/dL
  Hb: 14.1 g/dL
  Ht: 42.4%
  Lym: 82%
  MCH: 20.9 pg
  MCHC: 33.3%
  MCV: 62.8 fL
  Mono: 6.8%
  Neu: 10%
  PT: 11.8 s
  Plat: 106.3 x10_4/uL
  RBC: 675 x10_4/ul
  Ret: 5.7%
  WBC: 126.2 x10_2/uL
  KIDNEY_L: 1.2 g
  KIDNEY_R: 1.2 g
  KIDNEY_TOTAL: 2.4 g
  LIVER: 13.2 g
  A/G: 2
  ALP: 925.4 IU/L
  ALT: 33 IU/L
  AST: 63.2 IU/L
  BUN: 18.4 mg/dL
  CRE: 0.5 mg/dL
  Ca: 10.7 mg/dL
  Cl: 106.8 meq/L
  DBIL: 0.012 mg/dL
  GLC: 202.2 mg/dL
  IP: 8.3 mg/dL
  K: 5 meq/L
  LDH: 97.4 IU/L
  Na: 139 meq/L
  PL: 144.8 mg/dL
  RALB: 4 g/dL
  TBIL: 0.3 mg/dL
  TC: 69.2 mg/dL
  TG: 126.8 mg/dL
  TP: 6.1 g/dL
  gamma-GTP: 0.6 IU/L
[3]
  TERMINAL_BW: 339.4 g
  APTT: 16.7 s
  Bas: 0%
  Eos: 0.6%
  Fbg: 228.8 mg/dL
  Hb: 13.9 g/dL
  Ht: 41.7%
  Lym: 84.2%
  MCH: 20.1 pg
  MCHC: 33.4%
  MCV: 60.3 fL
  Mono: 5%
  Neu: 10.4%
  PT: 11.8 s
  Plat: 110.6 x10_4/uL
  RBC: 691.2 x10_4/ul
  Ret: 5.1%
  WBC: 148.4 x10_2/uL
  KIDNEY_L: 1.3 g
  KIDNEY_R: 1.3 g
  KIDNEY_TOTAL: 2.6 g
  LIVER: 16 g
  A/G: 1.8
  ALP: 780.8 IU/L
  ALT: 30.6 IU/L
  AST: 60.6 IU/L
  BUN: 19.8 mg/dL
  CRE: 0.6 mg/dL
  Ca: 10.4 mg/dL
  Cl: 105.6 meq/L
  DBIL: 0.012 mg/dL
  GLC: 201.2 mg/dL
  IP: 8.5 mg/dL
  K: 4.8 meq/L
  LDH: 82.6 IU/L
  Na: 138.2 meq/L
  PL: 147.6 mg/dL
  RALB: 3.9 g/dL
  TBIL: 0.3 mg/dL
  TC: 72.4 mg/dL
  TG: 130.4 mg/dL
  TP: 6.2 g/dL
  gamma-GTP: 1.6 IU/L
[4]
  TERMINAL_BW: 433.9 g
  APTT: 15.3 s
  Bas: 0%
  Eos: 0.8%
  Fbg: 256.8 mg/dL
  Hb: 14.6 g/dL
  Ht: 44.4%
  Lym: 86.8%
  MCH: 18.5 pg
  MCHC: 32.9%
  MCV: 56.1 fL
  Mono: 4.4%
  Neu: 7.8%
  PT: 11.8 s
  Plat: 112.3 x10_4/uL
  RBC: 792.2 x10_4/ul
  Ret: 3.2%
  WBC: 153.4 x10_2/uL
  KIDNEY_L: 1.5 g
  KIDNEY_R: 1.5 g
  KIDNEY_TOTAL: 3 g
  LIVER: 19.6 g
  A/G: 1.9
  ALP: 622.6 IU/L
  ALT: 27.6 IU/L
  AST: 56.2 IU/L
  BUN: 18.8 mg/dL
  CRE: 0.7 mg/dL
  Ca: 10.7 mg/dL
  Cl: 105.2 meq/L
  DBIL: 0.018 mg/dL
  GLC: 206.4 mg/dL
  IP: 7.5 mg/dL
  K: 4.1 meq/L
  LDH: 62.4 IU/L
  Na: 139.2 meq/L
  PL: 163.2 mg/dL
  RALB: 4.3 g/dL
  TBIL: 0.3 mg/dL
  TC: 79.6 mg/dL
  TG: 181.2 mg/dL
  TP: 6.6 g/dL
  gamma-GTP: 1.8 IU/L
[5]
  TERMINAL_BW: 239.1 g
  APTT: 16.8 s
  Bas: 0%
  Eos: 0.4%
  Fbg: 230.8 mg/dL
  Hb: 13.6 g/dL
  Ht: 40.7%
  Lym: 79%
  MCH: 21.7 pg
  MCHC: 33.5%
  MCV: 65 fL
  Mono: 7.6%
  Neu: 12.8%
  PT: 10.9 s
  Plat: 102.8 x10_4/uL
  RBC: 626.4 x10_4/ul
  Ret: 7%
  WBC: 89 x10_2/uL
  KIDNEY_L: 1.1 g
  KIDNEY_R: 1.1 g
  KIDNEY_TOTAL: 2.2 g
  LIVER: 11.8 g
  A/G: 1.9
  ALP: 1210.2 IU/L
  ALT: 35.2 IU/L
  AST: 64.4 IU/L
  BUN: 16.8 mg/dL
  CRE: 0.6 mg/dL
  Ca: 10.6 mg/dL
  Cl: 105.8 meq/L
  DBIL: 0.032 mg/dL
  GLC: 196.6 mg/dL
  IP: 7.9 mg/dL
  K: 4.9 meq/L
  LDH: 91.4 IU/L
  Na: 138.8 meq/L
  PL: 165.2 mg/dL
  RALB: 3.9 g/dL
  TBIL: 0.3 mg/dL
  TC: 86 mg/dL
  TG: 108 mg/dL
  TP: 5.9 g/dL
  gamma-GTP: 1.2 IU/L
[6]
  TERMINAL_BW: 272.4 g
  APTT: 16.3 s
  Bas: 0%
  Eos: 0.6%
  Fbg: 240.2 mg/dL
  Hb: 13.8 g/dL
  Ht: 41.9%
  Lym: 82.8%
  MCH: 21.1 pg
  MCHC: 33.1%
  MCV: 63.9 fL
  Mono: 7.2%
  Neu: 9.2%
  PT: 11.7 s
  Plat: 121.9 x10_4/uL
  RBC: 656.8 x10_4/ul
  Ret: 7.2%
  WBC: 124.3 x10_2/uL
  KIDNEY_L: 1.1 g
  KIDNEY_R: 1.1 g
  KIDNEY_TOTAL: 2.3 g
  LIVER: 13.5 g
  A/G: 2.1
  ALP: 892.6 IU/L
  ALT: 30.2 IU/L
  AST: 61.4 IU/L
  BUN: 20 mg/dL
  CRE: 0.5 mg/dL
  Ca: 11 mg/dL
  Cl: 105.6 meq/L
  DBIL: 0.006 mg/dL
  GLC: 193.2 mg/dL
  IP: 8.2 mg/dL
  K: 4.9 meq/L
  LDH: 89.2 IU/L
  Na: 139.4 meq/L
  PL: 156.6 mg/dL
  RALB: 4 g/dL
  TBIL: 0.4 mg/dL
  TC: 77.4 mg/dL
  TG: 149.6 mg/dL
  TP: 6 g/dL
  gamma-GTP: 1.4 IU/L
[7]
  TERMINAL_BW: 337.2 g
  APTT: 16.5 s
  Bas: 0%
  Eos: 0.8%
  Fbg: 232.4 mg/dL
  Hb: 14.4 g/dL
  Ht: 43.4%
  Lym: 85.4%
  MCH: 19.8 pg
  MCHC: 33.1%
  MCV: 59.8 fL
  Mono: 4.8%
  Neu: 9%
  PT: 11.6 s
  Plat: 119.2 x10_4/uL
  RBC: 726.6 x10_4/ul
  Ret: 4.3%
  WBC: 140.8 x10_2/uL
  KIDNEY_L: 1.3 g
  KIDNEY_R: 1.3 g
  KIDNEY_TOTAL: 2.6 g
  LIVER: 16.3 g
[8]
  TERMINAL_BW: 425.7 g
  APTT: 16.4 s
  Bas: 0%
  Eos: 0.8%
  Fbg: 249.8 mg/dL
  Hb: 15.2 g/dL
  Ht: 45.7%
  Lym: 83.6%
  MCH: 19.1 pg
  MCHC: 33.2%
  MCV: 57.5 fL
  Mono: 5.6%
  Neu: 10.6%
  PT: 11.8 s
  Plat: 113.7 x10_4/uL
  RBC: 795.8 x10_4/ul
  Ret: 2.7%
  WBC: 149.8 x10_2/uL
  KIDNEY_L: 1.4 g
  KIDNEY_R: 1.4 g
  KIDNEY_TOTAL: 2.8 g
  LIVER: 18.6 g

Source: ChEMBL document CHEMBL3885861, “Open TG-GATES”
